# Active and inactive are the calls of the source. The calls are words filed in the database; no cut-off is given here.
# Assays:
# [1] = biological target: Human immunodeficiency virus type 1 protease (Human immunodeficiency virus 1) (UniProt Q72874); assay: Evaluated for the inhibition of HIV-1 Protease.
# [2] = biological target: Human immunodeficiency virus type 1 protease (Human immunodeficiency virus 1) (UniProt Q72874)
# [3] = biological target: Human immunodeficiency virus type 1 integrase (Human immunodeficiency virus 1) (UniProt Q7ZJM1); assay: Inhibitory concentration against HIV-1 Integrase 3' chain processing
# [4] = Inhibition of compound against p7 nucleocapsid fluorescence intensity of the zinc finger ); NI = No inhibition; assay type: functional
# Homo sapiens [5] = species on record: Homo sapiens; assay: Antiviral activity against HIV virus induced infection in human PBLs cells; assay type: functional, cell-based
# [6] = biological target: Human immunodeficiency virus type 1 reverse transcriptase (Human immunodeficiency virus 1) (UniProt Q72547); assay: Inhibitory concentration against Reverse Transcriptase
# [7] = biological target: Human immunodeficiency virus type 1 protease (Human immunodeficiency virus 1) (UniProt Q72874); remark: listed apart in the source
# Description: Inhibitory concentration against HIV-1 Protease
# [8] = biological target: Human immunodeficiency virus type 1 integrase (Human immunodeficiency virus 1) (UniProt Q7ZJM1); assay: Inhibitory concentration against HIV-1 Integrase 3' chain transfer
# Homo sapiens [9] = species on record: Homo sapiens; assay: Cytotoxicitic activity […] in human PBLs cells; assay type: functional, cell-based
# Human immunodeficiency virus type 1 integrase (Human immunodeficiency virus 1), sequence (Q7ZJM1 as listed by the source): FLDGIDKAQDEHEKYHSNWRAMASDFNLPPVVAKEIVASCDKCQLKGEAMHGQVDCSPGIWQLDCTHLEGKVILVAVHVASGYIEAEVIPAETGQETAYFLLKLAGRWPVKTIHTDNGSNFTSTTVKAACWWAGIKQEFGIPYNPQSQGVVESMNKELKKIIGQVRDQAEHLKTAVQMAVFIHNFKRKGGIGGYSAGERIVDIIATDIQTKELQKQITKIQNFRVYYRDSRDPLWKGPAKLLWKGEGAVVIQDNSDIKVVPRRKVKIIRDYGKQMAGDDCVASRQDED
SMILES,ID50 [1] [µM],other results
O=c1oc2c(-c3ccccc3)cccc2c(O)c1-c1ccccc1,13,–
O=c1c(C(c2ccc3c(c2)OCO3)c2c(O)oc3ccccc3c2=O)c(O)oc2ccccc12,30,–
O=C1C(O)=C(C(C2=C(O)C(=O)c3ccccc3C2=O)c2ccc(C(C3=C(O)C(=O)c4ccccc4C3=O)C3=C(O)C(=O)c4ccccc4C3=O)cc2)C(=O)c2ccccc21,0.75,–
CC(C)CC(NC(=O)OCc1ccccc1)(C(=O)O)C(=O)O,17,–
O=C(Oc1ccccc1)N(CCO)C(c1ccccc1)C(O)c1ccccc1 (configuration not stated),32,–
O=C1C2=C(C(=O)c3ccccc31)C(O)(S(=O)(=O)O)C(O)(S(=O)(=O)O)C1N=CC=CC21 (configuration not stated),2,–
O=C1Oc2ccccc2C(O)C1Sc1c(O)oc2ccccc2c1=O (configuration not stated),21,–
O=c1c(C(c2ccc(C(c3c(O)oc4ccccc4c3=O)c3c(O)oc4ccccc4c3=O)cc2)c2c(O)oc3ccccc3c2=O)c(O)oc2ccccc12,1.7,ID50 [2]: inactive; ID50 [3]: 1.5 µM; RFU [4]: inactive; EC50 (Homo sapiens [5]): 11.5 µM; ID50 [6]: 7.1 µM; ID50 [7]: 1.7 µM; ID50 [8]: 0.7 µM; IC50 (Homo sapiens [9]): 54.8 µM
CC(=O)OC1CCC2(C)C(C)C(C)CCC2(O)C1O (configuration not stated),16,–
Cc1cn([C@H]2C[C@H](N=[N+]=[N-])[C@@H](COP(=O)(O)OP(=O)(O)OP(=O)(O)O)O2)c(=O)[nH]c1=O,54,–
CCCCCCc1cc2c(cc1O)OC(=O)C(C(c1ccccc1)c1c(O)oc3cc(O)c(CCCCCC)cc3c1=O)C2O (configuration not stated),0.32,–
C[C@]12CCC(=O)C=C1CC[C@@H]1[C@@H]2[C@@H](O)C[C@@]2(C)[C@H]1CC[C@]2(O)C(=O)COC(=O)CCC(=O)O,27,–
O=C1C(O)=C(C(C2=C(O)C(=O)c3ccccc3C2=O)c2ccc(Cl)cc2Cl)C(=O)c2ccccc21,24,–
CCCC(=O)C1=C(O)C(Cc2c(O)c(C)c(O)c(C(=O)CCC)c2O)=C(O)C(C)(C)C1=O,26,–
CC1(C)CC[C@]2(C(=O)O)CC[C@]3(C)C(=CC[C@@H]4[C@@]5(C)C[C@H](O)[C@H](O)[C@@](C)(C(=O)O)[C@H]5CC[C@]43C)[C@@H]2C1,35,–
O=c1oc2cccc(O)c2c(O)c1Cc1ccccc1,6,–
CC(C)c1cccc(C(C)C)c1NC(=O)C(=O)CC(=O)CC(c1ccccc1)c1c(O)oc2ccccc2c1=O (configuration not stated),31,–
CC(=O)NC(Cc1ccsc1)(C(=O)O)C(=O)O,23,–
O=c1oc2ccccc2c(O)c1-c1ccccc1,42,–

# From ChEMBL document CHEMBL1129680, “Discovery of novel, non-peptide HIV-1 protease inhibitors by pharmacophore searching” (J Med Chem, 1996)
